From the NIST ThermoML archive (doi:10.1021/acs.jced.8b00037)

Assay: molar heat capacity at constant volume
Settings: Liquid, Vacuum adiabatic calorimetry

COC [dimethyl ether]
Settings | molar heat capacity at constant volume [J/K/mol]
157.53 K, 4013 kPa | 69.69
159.72 K, 8322 kPa | 69.6
161.9 K, 12544 kPa | 69.78
164.07 K, 16672 kPa | 69.67
166.23 K, 20708 kPa | 69.85
168.38 K, 24704 kPa | 69.65
170.51 K, 28650 kPa | 69.79
172.64 K, 32529 kPa | 70.05
176.39 K, 3776 kPa | 68.85
178.57 K, 7593 kPa | 68.76
180.74 K, 11350 kPa | 68.76
182.9 K, 15062 kPa | 68.62
185.05 K, 18718 kPa | 68.78
187.2 K, 22325 kPa | 68.84
189.34 K, 25885 kPa | 68.95
191.46 K, 29382 kPa | 69
193.58 K, 32823 kPa | 69.21
200.6 K, 3313 kPa | 68.02
202.77 K, 6569 kPa | 67.99
204.93 K, 9792 kPa | 67.7
207.08 K, 12969 kPa | 68.02
209.23 K, 16115 kPa | 68
211.37 K, 19219 kPa | 68.42
213.5 K, 22288 kPa | 68.53
215.62 K, 25311 kPa | 68.58
217.74 K, 28297 kPa | 69.12
219.85 K, 31246 kPa | 69
223.34 K, 2896 kPa | 67.94
225.51 K, 5714 kPa | 67.91
227.67 K, 8494 kPa | 68.08
229.82 K, 11254 kPa | 68.44
231.97 K, 13976 kPa | 68.41
234.11 K, 16676 kPa | 68.64
236.24 K, 19342 kPa | 68.9
238.36 K, 21979 kPa | 68.71
240.48 K, 24585 kPa | 68.77
242.59 K, 27158 kPa | 69.15
244.69 K, 29702 kPa | 69.45
245.08 K, 2602 kPa | 68.32
246.78 K, 32213 kPa | 69.76
247.24 K, 5030 kPa | 68.61
249.4 K, 7443 kPa | 68.82
251.55 K, 9828 kPa | 69.15
253.7 K, 12195 kPa | 69.1
255.84 K, 14539 kPa | 69.14
257.97 K, 16865 kPa | 69.11
260.09 K, 19157 kPa | 69.43
261.13 K, 2479 kPa | 69.34
262.21 K, 21436 kPa | 69.63
263.3 K, 4661 kPa | 69.49
264.32 K, 23690 kPa | 69.84
265.47 K, 6829 kPa | 69.28
266.43 K, 25920 kPa | 69.92
267.63 K, 8973 kPa | 69.82
268.52 K, 28128 kPa | 69.96
269.79 K, 11103 kPa | 69.61
270.62 K, 30316 kPa | 69.95
271.93 K, 13210 kPa | 69.63
272.69 K, 32476 kPa | 70.7
274.07 K, 15304 kPa | 70.14
276.21 K, 17379 kPa | 70.25
278.33 K, 19435 kPa | 70.27
279.17 K, 2674 kPa | 69.72
280.45 K, 21472 kPa | 70.38
281.36 K, 4596 kPa | 69.98
282.56 K, 23487 kPa | 70.94
283.54 K, 6506 kPa | 69.97
284.67 K, 25491 kPa | 70.96
285.71 K, 8399 kPa | 70.42
286.77 K, 27476 kPa | 70.72
287.87 K, 10279 kPa | 70.77
288.86 K, 29439 kPa | 71.64
290.03 K, 12145 kPa | 71.02
290.95 K, 31396 kPa | 71.89
292.18 K, 14000 kPa | 71.24
293.04 K, 33333 kPa | 71.85
294.33 K, 15843 kPa | 71.24
296.47 K, 17674 kPa | 70.96
298.61 K, 19489 kPa | 71.48
300.73 K, 2646 kPa | 71.27
300.75 K, 21296 kPa | 71.95
302.88 K, 23091 kPa | 71.44
302.96 K, 4292 kPa | 71.08
305.01 K, 24872 kPa | 71.85
305.18 K, 5930 kPa | 71.96
307.14 K, 26644 kPa | 72.77
307.41 K, 7569 kPa | 72.11
309.27 K, 28409 kPa | 73.16
309.62 K, 9196 kPa | 71.88
311.39 K, 30163 kPa | 72.97
311.84 K, 10814 kPa | 72.56
313.52 K, 31911 kPa | 73.2
314.06 K, 12436 kPa | 72.39
315.65 K, 33651 kPa | 73
316.28 K, 14048 kPa | 72.58
318.5 K, 15656 kPa | 72.87
320.54 K, 2597 kPa | 72.71
320.74 K, 17265 kPa | 73.03
322.97 K, 18872 kPa | 73.22
323.02 K, 4128 kPa | 72.98
325.22 K, 20482 kPa | 73.26
325.5 K, 5662 kPa | 73.54
327.49 K, 22098 kPa | 73.84
328.01 K, 7206 kPa | 73.45
329.78 K, 23723 kPa | 73.46
330.53 K, 8756 kPa | 73.25
332.09 K, 25355 kPa | 73.79
333.07 K, 10311 kPa | 73.52
334.44 K, 27002 kPa | 74.11
335.63 K, 11877 kPa | 73.69
336.81 K, 28665 kPa | 74.55
338.21 K, 13448 kPa | 74.18
339.21 K, 30343 kPa | 75.43
340.82 K, 15034 kPa | 74.59
341.66 K, 32044 kPa | 75.07
343.45 K, 16629 kPa | 74.42
344.14 K, 33761 kPa | 74.99
